{
  "source": "patent US9857359B2",
  "about": "“Methods for determining drug efficacy using cereblon-associated proteins” (CELGENE CORPORATION, priority 2012, dated 2018)",
  "key": {"Aiolos [1]": {"tested_on": "Aiolos", "assay": "Aiolos western blots in MM cells, T cells and B cells", "type": "cell-based, human", "method": "(§1) U266 cells were obtained from ATCC (American Type Culture Collection, Manassas, Va., USA). DF15 cells were obtained from John Shaughnessy (University of Arkansas, Little Rock, Ark., USA). CD19+ B cells were purchased from HemaCare BioResearch Products (Van Nuys, Calif.). Cells were grown in RPMI-1640 medium (Cellgro, Manassas, Va.) containing 10% (V/V) heat-inactivated fetal bovine serum (Gibco, Grand Island, N.Y., USA) supplemented with 2 mM glutamine. […] Primary T cells were isolated from human leukocytes (Blood Center of New Jersey, East Orange, N.J.) by centrifugation through FICOLL® centrifugation medium following the ROSETETTESEP™ protocol (Stem Cell Technologies, Vancouver, Canada). […] Dexamethasone (Sigma, St. Louis, Mo.), melphalan (Sigma, St. Louis, Mo.) and bortezomib (Selleck Chemicals, Houston, Tex.) treated was for 6 hours. The final DMSO concentration is 0.1%. Cells were pre-treated with 10 μM MG-132 (Calbiochem Biochemicals, Billerica, Mass.) for 30 minutes prior to drug addition. Cells were harvested, washed in PBS and cell lysates separated on SDS-PAGE gels (Bio-Rad, Hercules, Calif.). Membranes were immunoblotted with anti-Aiolos (Santa Cruz Biotechnology, Dallas, Tex.), anti-Ikaros (Millipore, Billerica, Mass.) and anti-Actin (Sigma, St. Louis, Mo.; or LI-COR Biosciences, Lincoln, Nebr.) and secondary antibodies (LI-COR Biosciences, Lincoln, Nebr.). The blots were analyzed on ODESSEY® imager (LI-COR Biosciences, Lincoln, Nebr.).\nCell lysates were separated on a 10% TGX SDS-PAGE gel (Bio-Rad) and blotted for Aiolos (Santa Cruz, sc-10198), Ikaros (Millipore, ABD16) and Actin (Sigma, AC15)."}, "[2]": {"tested_on": "interferon regulatory factor 4 (IRF4)", "assay": "IRF4 expression in DLBCL cells", "type": "cell-based", "settings": "ABC-DLBCL cells"}, "Aiolos [3]": {"tested_on": "Aiolos", "assay": "Aiolos inhibition by cohort in cancer patients, flow cytometry", "type": "in vivo, human", "settings": "by time and dose", "method": "Cancer patients were administered Compound A at doses of 0.5 mg, 1 mg, 1.5 mg, 2 mg, 2.5 mg, 3 or 3.5 mg. Blood samples were drawn immediately prior to dosing and 1.5 hr and 5 hr post single dose of Compound A. Peripheral blood mononuclear cells were FICOLL®-isolated from whole blood samples and viably frozen in DMSO. The cells were washed twice with 2 mL of cold phosphate buffer saline (PBS), then permeabilized by adding 2 mL of cold BD CYTOFIX/CYTOPERM™ buffer and incubated on ice for 15 minutes. The cells were centrifuged then washed twice with BD PERM/WASH™ buffer, then resuspended in 40 μl of BD PERM/WASH™ buffer. Cells were stained with anti-CD3 or anti-CD19 antibody, and 20 μl of anti-Aiolos Ab (Santa Cruz Santa Cruz, rabbit polyclonal IgG, cat#sc-101982 at 1:200 dilution with staining buffer), or 20 μL of appropriate isotype controls to cells. Cells were mixed thoroughly and incubated at room temperature for 30 minutes in the dark, washed once with BD perm/wash buffer, then resuspended in […] of BD PERM/WASH™ buffer, and 20 μL of secondary antibody was added before analysis on a flow cytometer."}, "Aiolos [4]": {"tested_on": "Aiolos", "assay": "Aiolos protein expression in T cells with or without proteasome inhibitor", "type": "cell-based", "method": "as §1, with “Membranes were immunoblotted with anti-Aiolos (Santa Cruz Biotechnology, Dallas, Tex.), anti-Ikaros (Millipore, Billerica, Mass.) and anti-Actin (Sigma, St. Louis, Mo.; or LI-COR Biosciences, Lincoln, Nebr.) and secondary antibodies (LI-COR Biosciences, Lincoln, Nebr.).” left out"}},
  "data": [
    {"smiles": "Nc1cccc2c1C(=O)N(C1CCC(=O)NC1=O)C2=O", "note": "(centres unmarked) [pomalidomide, reference compound]", "values": [
      {"measurement": "Aiolos expression", "setting": "Aiolos [1]; 10 μM lenalidomide, 1 μM pomalidomide, U266, DF15 MM cells, primary CD3+ T cells, primary CD19+ B cells, cycloheximide treated U266", "result": "reduced the expression of Aiolos and Ikaros"},
      {"measurement": "Reduction of Aiolos levels compared with other treatment compounds for MM", "setting": "Aiolos [1]; MM cells", "result": "unique to immunomodulatory compounds provided herein"},
      {"measurement": "Aiolos expression", "setting": "Aiolos [1]; six MM cell lines (OPM-2, RPMI-8226, LP-1, U266, H929 and JJN3), various concentrations", "result": "significantly inhibited Aiolos and Ikaros expression"}
    ]},
    {"smiles": "Nc1cccc2c1CN(C1CCC(=O)NC1=O)C2=O", "note": "(centres unmarked) [lenalidomide]", "values": [
      {"measurement": "IRF4 level associated with tumoricidal effect", "setting": "[2]", "result": "downregulation of interferon regulatory factor 4 (IRF4)"}
    ]},
    {"smiles": "Cc1nc2cccc(N)c2c(=O)n1C1CCC(=O)NC1=O", "note": "(centres unmarked) [Compound A, 3-(5-amino-2-methyl-4-oxo-4H-quinazolin-3-yl)-piperidine-2,6-dione]", "values": [
      {"measurement": "Aiolos inhibition in B cells", "setting": "Aiolos [3]", "result": "Aiolos inhibition correlates with Compound A exposure"},
      {"measurement": "Aiolos inhibition in T cells", "setting": "Aiolos [3]", "result": "Aiolos inhibition correlates with Compound A exposure"},
      {"measurement": "Aiolos expression", "setting": "Aiolos [4]; absence of a proteasome inhibitor", "result": "inhibit the expression of Aiolos"},
      {"measurement": "Aiolos expression", "setting": "Aiolos [4]; proteasome inhibitor present", "result": "little inhibition was observed"}
    ]}
  ]
}
